Earlier results on three molecules are cited in patent publication US5721209A, “Iron chelator and inhibitor of iron-mediated oxidant injury” (The Regents of the University of California, priority 1995, dated 1998).

Where two headings read alike, the source gives them in different places.

For data set [1] the following is noted: prior known iron chelator.
The test system of a further data set is ischemic myocardium. Particulars: for prevention of reperfusion injury / myocardial infarct size: administered prior to reperfusion / prior to occurrence of the myocardial infarct.
In the next data set the test system is neuroblastoma cells. Particulars: removal of iron; growth of normal cells not similarly affected.
The conditions of data set [2]: according to Macham.

Regarding `O=C(O)CN(CCN(CC(=O)O)CC(=O)O)CC(=O)O` [EDTA], the “prevention of (.cndot.OH) production by the Fenton reaction” value in data set [1] is “do not prevent (.cndot.OH) production by the Fenton reaction”.
For the molecule `CC(=O)N(O)CCCCCNC(=O)CCC(=O)N(O)CCCCCNC(=O)CCC(=O)N(O)CCCCCN` [deferoxamine], the “prevention of reperfusion injury” value in the data set on ischemic myocardium (administered at or after the onset of reperfusion) is recorded as “ineffective”. Further, the “prevention of reperfusion injury / myocardial infarct size” value is “prevents injury and reduces myocardial infarct size” with ischemic myocardium; “effective” in the data set with ischemic myocardium (listed as Desferoxamine). Moreover, the “growth of neuroblastoma cells” value in the data set on neuroblastoma cells is reported as “negatively affected”.
Turning to mycobactin, the solubility result in data set [2] is recorded as “water insoluble”.
